{"source": "patent US9302999B2", "about": "“Substituted triazoles as herbicides” (E. I. DU PONT DE NEMOURS AND COMPANY, priority 2012, dated 2016)", "type_in_all_cases": "in vivo", "details_in_all_cases": "Preemergence, scale 0 to 100", "key": {"[1]": {"tested_on": "dayflower, (VA) (Virginia dayflower, Commelina virginica)", "assay": "Test E pre-/postemergence: dayflower, (VA)", "from_the_text": "(§1) Seeds of plant species selected from corn (Zea mays), soybean (Glycine max), velvetleaf (Abutilon theophrasti), lambsquarters (Chenopodium album), poinsettia, wild (wild poinsettia, Euphorbia heterophylla), pigweed, palmer (palmer pigweed, Amaranthus palmeri), waterhemp (common waterhemp, Amaranthus rudis), smartweed (ladysthumb smartweed, Polygonum persicaria), surinam grass (Brachiaria decumbens), crabgrass, large (large crabgrass, Digitaria sanguinalis), crabgrass, Brazil (Brazilian crabgrass, Digitaria horizontalis), panicum, fall (fall panicum, Panicum dichotomiflorum), foxtail, giant (giant foxtail, Setaria faberii), foxtail, green (green foxtail, Setaria viridis), goosegrass (Eleusine indica), johnsongrass (Sorghum halepense), ragweed (common ragweed, Ambrosia elation), barnyardgrass (Echinochloa crus-galli), sandbur (southern sandbur, Cenchrus echinatus), arrowleaf sida (Sida rhombifolia), ryegrass, Italian (Italian ryegrass, Lolium multiflorum), dayflower, (VA) (Virginia dayflower, Commelina virginica), field bindweed (Convolvulus arvensis), cocklebur (common cocklebur, Xanthium strumarium), morningglory (Ipomoea coccinea), nightshade (eastern black nightshade, Solanum ptycanthum), kochia (Kochia scoparia), nutsedge, yellow (yellow nutsedge, Cyperus esculentus) and beggarticks (hairy beggarticks, Bidens pilosa) were planted into a silt loam soil and treated preemergence with test chemicals formulated in a non-phytotoxic solvent mixture which included a surfactant. At the same time, plants selected from these crop and weed species were planted in pots containing a growing medium comprising spaghnum peat moss, vermiculite, wetting agent and starter nutrients and treated with postemergence applications of some of the test chemicals formulated in the same manner. Plants ranged in height from 2 to 18 cm for postemergence treatments (1- to 4-leaf stage).\n(§2) Treated plants and controls were maintained in a greenhouse for 14 to 21 days, after which time all species were compared to controls and visually evaluated. Plant response ratings, summarized in Table E, are based on a scale of 0 to 100 where 0 is no effect and 100 is complete control. A dash (-) response means no test result."}, "kochia (Kochia scoparia)": {"tested_on": "kochia (Kochia scoparia)", "assay": "Test E pre-/postemergence: kochia", "from_the_text": "as §1, §2"}, "[2]": {"tested_on": "ragweed (common ragweed, Ambrosia elation)", "assay": "Test E pre-/postemergence: ragweed", "from_the_text": "as §1, §2"}, "[3]": {"tested_on": "arrowleaf sida (Sida rhombifolia)", "assay": "Test E pre-/postemergence: arrowleaf sida", "from_the_text": "as §1, §2"}, "[4]": {"tested_on": "foxtail, green (green foxtail, Setaria viridis)", "assay": "Test E pre-/postemergence: foxtail, green", "from_the_text": "as §1, §2"}, "[5]": {"tested_on": "lambsquarters (Chenopodium album)", "assay": "Test E pre-/postemergence: lambsquarters", "from_the_text": "as §1, §2"}, "[6]": {"tested_on": "crabgrass, large (large crabgrass, Digitaria sanguinalis)", "assay": "Test E pre-/postemergence: crabgrass, large", "from_the_text": "as §1, §2"}, "[7]": {"tested_on": "foxtail, giant (giant foxtail, Setaria faberii)", "assay": "Test E pre-/postemergence: foxtail, giant", "from_the_text": "as §1, §2"}, "[8]": {"tested_on": "ryegrass, Italian (Italian ryegrass, Lolium multiflorum)", "assay": "Test E pre-/postemergence: ryegrass, Italian", "from_the_text": "as §1, §2"}, "[9]": {"tested_on": "crabgrass, Brazil (Brazilian crabgrass, Digitaria horizontalis)", "assay": "Test E pre-/postemergence: crabgrass, Brazil", "from_the_text": "as §1, §2"}, "[10]": {"tested_on": "pigweed, palmer (palmer pigweed, Amaranthus palmeri)", "assay": "Test E pre-/postemergence: pigweed, palmer", "from_the_text": "as §1, §2"}}}
{"smiles": "Cc1nn(-c2ccc(C(F)(F)F)cn2)nc1Oc1ccnc(C(F)(F)F)c1", "note": "[Compound 23]", "values": [{"measurement": "Plant response rating: Dayflower, VA", "setting": "[1]; 16 g ai/ha", "result": 0}, {"measurement": "Plant response rating: Dayflower, VA", "setting": "[1]; 31 g ai/ha", "result": 0}, {"measurement": "Plant response rating: Dayflower, VA", "setting": "[1]; 62 g ai/ha", "result": 0}, {"measurement": "Plant response rating: Dayflower, VA", "setting": "[1]; 125 g ai/ha", "result": 5}, {"measurement": "Plant response rating: Dayflower, VA", "setting": "[1]; 250 g ai/ha", "result": 5}, {"measurement": "Plant response rating: Kochia", "setting": "kochia (Kochia scoparia); 16 g ai/ha", "result": 0}, {"measurement": "Plant response rating: Kochia", "setting": "kochia (Kochia scoparia); 31 g ai/ha", "result": 0}, {"measurement": "Plant response rating: Kochia", "setting": "kochia (Kochia scoparia); 62 g ai/ha", "result": 60}, {"measurement": "Plant response rating: Kochia", "setting": "kochia (Kochia scoparia); 125 g ai/ha", "result": 100}, {"measurement": "Plant response rating: Kochia", "setting": "kochia (Kochia scoparia); 250 g ai/ha", "result": 100}, {"measurement": "Plant response rating: Ragweed", "setting": "[2]; 16 g ai/ha", "result": 0}, {"measurement": "Plant response rating: Ragweed", "setting": "[2]; 31 g ai/ha", "result": 0}, {"measurement": "Plant response rating: Ragweed", "setting": "[2]; 62 g ai/ha", "result": 0}, {"measurement": "Plant response rating: Ragweed", "setting": "[2]; 125 g ai/ha", "result": 0}, {"measurement": "Plant response rating: Ragweed", "setting": "[2]; 250 g ai/ha", "result": 25}, {"measurement": "Plant response rating: Arrowleaf Sida", "setting": "[3]; 16 g ai/ha", "result": 0}, {"measurement": "Plant response rating: Arrowleaf Sida", "setting": "[3]; 31 g ai/ha", "result": 0}, {"measurement": "Plant response rating: Arrowleaf Sida", "setting": "[3]; 62 g ai/ha", "result": 0}, {"measurement": "Plant response rating: Arrowleaf Sida", "setting": "[3]; 125 g ai/ha", "result": 0}, {"measurement": "Plant response rating: Arrowleaf Sida", "setting": "[3]; 250 g ai/ha", "result": 35}, {"measurement": "Plant response rating: Foxtail, Green", "setting": "[4]; 16 g ai/ha", "result": 0}, {"measurement": "Plant response rating: Foxtail, Green", "setting": "[4]; 31 g ai/ha", "result": 0}, {"measurement": "Plant response rating: Foxtail, Green", "setting": "[4]; 62 g ai/ha", "result": 5}, {"measurement": "Plant response rating: Foxtail, Green", "setting": "[4]; 125 g ai/ha", "result": 70}, {"measurement": "Plant response rating: Foxtail, Green", "setting": "[4]; 250 g ai/ha", "result": 95}, {"measurement": "Plant response rating: Lambsquarters", "setting": "[5]; 31 g ai/ha", "result": 0}, {"measurement": "Plant response rating: Lambsquarters", "setting": "[5]; 62 g ai/ha", "result": 0}, {"measurement": "Plant response rating: Lambsquarters", "setting": "[5]; 125 g ai/ha", "result": 98}, {"measurement": "Plant response rating: Lambsquarters", "setting": "[5]; 250 g ai/ha", "result": 98}, {"measurement": "Plant response rating: Crabgrass, Large", "setting": "[6]; 16 g ai/ha", "result": 5}, {"measurement": "Plant response rating: Crabgrass, Large", "setting": "[6]; 31 g ai/ha", "result": 5}, {"measurement": "Plant response rating: Crabgrass, Large", "setting": "[6]; 62 g ai/ha", "result": 35}, {"measurement": "Plant response rating: Crabgrass, Large", "setting": "[6]; 125 g ai/ha", "result": 70}, {"measurement": "Plant response rating: Crabgrass, Large", "setting": "[6]; 250 g ai/ha", "result": 100}, {"measurement": "Plant response rating: Foxtail, Giant", "setting": "[7]; 16 g ai/ha", "result": 0}, {"measurement": "Plant response rating: Foxtail, Giant", "setting": "[7]; 31 g ai/ha", "result": 5}, {"measurement": "Plant response rating: Foxtail, Giant", "setting": "[7]; 62 g ai/ha", "result": 5}, {"measurement": "Plant response rating: Foxtail, Giant", "setting": "[7]; 125 g ai/ha", "result": 100}, {"measurement": "Plant response rating: Foxtail, Giant", "setting": "[7]; 250 g ai/ha", "result": 100}, {"measurement": "Plant response rating: Ryegrass, Italian", "setting": "[8]; 16 g ai/ha", "result": 0}, {"measurement": "Plant response rating: Ryegrass, Italian", "setting": "[8]; 31 g ai/ha", "result": 0}, {"measurement": "Plant response rating: Ryegrass, Italian", "setting": "[8]; 62 g ai/ha", "result": 0}, {"measurement": "Plant response rating: Ryegrass, Italian", "setting": "[8]; 125 g ai/ha", "result": 0}, {"measurement": "Plant response rating: Ryegrass, Italian", "setting": "[8]; 250 g ai/ha", "result": 10}, {"measurement": "Plant response rating: Crabgrass, Brazil", "setting": "[9]; 16 g ai/ha", "result": 0}, {"measurement": "Plant response rating: Crabgrass, Brazil", "setting": "[9]; 31 g ai/ha", "result": 0}, {"measurement": "Plant response rating: Crabgrass, Brazil", "setting": "[9]; 62 g ai/ha", "result": 65}, {"measurement": "Plant response rating: Crabgrass, Brazil", "setting": "[9]; 125 g ai/ha", "result": 65}, {"measurement": "Plant response rating: Crabgrass, Brazil", "setting": "[9]; 250 g ai/ha", "result": 85}, {"measurement": "Plant response rating: Pigweed, Palmer", "setting": "[10]; 16 g ai/ha", "result": 90}, {"measurement": "Plant response rating: Pigweed, Palmer", "setting": "[10]; 31 g ai/ha", "result": 90}, {"measurement": "Plant response rating: Pigweed, Palmer", "setting": "[10]; 62 g ai/ha", "result": 100}, {"measurement": "Plant response rating: Pigweed, Palmer", "setting": "[10]; 125 g ai/ha", "result": 100}, {"measurement": "Plant response rating: Pigweed, Palmer", "setting": "[10]; 250 g ai/ha", "result": 100}]}
